Here are results for 4 molecules from US8333966B2, “CD37 immunotherapeutics and uses thereof” (Emergent Product Development Seattle, LLC, priority 2008, dated 2012).

Entries after “also recorded” stand apart in the source; their conditions may differ. Marks after values point to notes of the source that are not given here. Where only a bound is given, the exact number is not on record here.

The target of one data set is T1, CD37 on BJAB cells (Homo sapiens, UniProt P11049).
T1 construct: endogenous in cells; host or cells: BJAB cells
T1 sequence (P11049 1-281): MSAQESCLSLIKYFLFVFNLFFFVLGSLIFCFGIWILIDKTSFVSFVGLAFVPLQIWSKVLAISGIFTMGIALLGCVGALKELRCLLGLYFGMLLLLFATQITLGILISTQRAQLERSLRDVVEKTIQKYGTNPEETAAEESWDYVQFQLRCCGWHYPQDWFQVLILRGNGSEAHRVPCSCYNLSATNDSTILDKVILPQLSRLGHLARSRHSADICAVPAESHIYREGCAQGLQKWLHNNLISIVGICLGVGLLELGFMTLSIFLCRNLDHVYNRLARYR
The experiment in a line: Competitive binding / cross blocking of FITC-conjugated anti-CD37 reagents on BJAB cells. The settings on record: unlabeled blocking reagent. On the procedure: FITC labeled antibody conjugates were titrated from 10 ng/mL to 10 μg/mL in an initial binding study to determine the optimal amount to use in the blocking studies. The level chosen was just below saturating amounts, and was kept constant in the subsequent assays, while levels of blocking antibody were increased over a 10-fold range. Data were plotted as percent of maximal binding versus concentration of blocking antibody, so that higher levels indicate less efficient blocking, while lower levels indicate more efficient blocking activity.
For competitive binding assays, 2.5×10^5 BJAB cells were incubated in 96-well V-bottom plates in staining media (PBS with 2% mouse sera) with the FITC-conjugated anti-CD37 mAbs at 1.25 μg/mL in the presence of unconjugated anti-CD37 MAb at the indicated concentrations (2.5, 1.25, 0.6, or 0.3 μg/ml) or staining media for 45 minutes on ice in the dark. Blocking antibodies and FITC labeled antibody conjugates were added to reactions prior to addition of cells. The cells were then washed […] with PBS and fixed with 1% paraformaldehyde (USB, Cleveland, Ohio). The treated cells were analyzed by flow cytometry using a FACsCalibur instrument and CellQuest software (BD Biosciences, San Jose, Calif.). […]

A short description of data set [1]: SMIP expression in transfected HEK293 cells, day 7 supernatants titered with Protein A sensor. To be noted: supernatants day 7. The text has this: CAS-024 and other CD37-specific binding SMIP molecules were produced by recombinant DNA technology and transfected into HEK293 cells for 7 days. Cell culture supernatants were harvested on day 7 and titered using Octec Q Protein A sensor.

Data set [2] is described as follows: SMIP expression in transfected CHO cells, supernatants titered with Protein A sensor. The arrangement: species or system Chinese Hamster Ovary (CHO). The settings on record: shake flasks, culture supernatants. On the procedure:
CAS-024 and other CD37-specific binding SMIP molecules were cloned into a Chinese Hamster Ovary (CHO) mammalian cell expression system. Transfected CHO cells that produced the SMIP molecules were cultured in shake flasks and harvested cell culture supernatants were titered using Octec Q Protein A sensor.

The subject of data set [3] is human tumor (DOHH2) xenograft. The experiment in a line: Single agent efficacy in established DOHH2 xenograft model in SCID mice. It is filed as in vivo. To be noted: for Death (other than for Tumor Size Sacrifice) / Median Survival Time: 200 μg IP days 0, 4, 8, cumulative 600 μg; for mean tumor volume compared with human IgG treated group: day 4 through day 11. On the procedure: Mice were monitored daily by visual inspection. […] Tumor volumes were calculated as described above. Tumor volumes on the last day that all mice were alive in each group were also expressed in terms of tumor volumes relative to day 0, using the formula: Relative tumor volume on day of interest=(volume on day of interest−volume on day 0)volume on day 0
Background: Xenograft models place foreign cells or tissue in a host animal.

The subject of data set [4] is human tumor (DOHH2) xenograft. The experiment in a line: Dose response in established subcutaneous DOHH2 xenograft model in SCID mice. It counts as in vivo. On the procedure:
Mice were monitored daily by visual inspection. […] Tumor volumes were calculated as described above.

Data set [5] has as its system DOHH2 human tumor xenografts. To be noted: for Median Survival Time: CAS024 10 μg IV days 0, 4, 8, Bendamustine 10 mg/kg IP days 0, 2, 4, 7, 9, alone or combined; for clinical signs of toxicity: CAS024 10 μg IV, Bendamustine 10 mg/kg IP. On the procedure: Establishment of tumor xenografts and sorting into treatment groups. […] The tumor-bearing mice were sorted into five groups with equivalent mean tumor volumes (n=15 per group; 3 cages of 5 mice for each group).
In vivo treatment. Groups of mice were treated with an injection of 0.2 mL of PBS containing 10 μg huIgG (days 0, 4, 8 IV), 10 μg CAS024 (days 0, 4, 8 IV), 10 mg/kg Bendamustine (0, 2, 4, 7, 9 IP), or 10 μg CAS024 (days 0, 4, 8 IV) AND 10 mg/kg Bendamustine (0, 2, 4, 7, 9 IP).
Monitoring and endpoints. Mice were monitored daily by visual inspection. […] Tumor volumes were calculated as described above.

The target of the next data set is T2, CD37 on Ramos cells (Homo sapiens, UniProt P11049).
T2 construct: endogenous in cells; host or cells: Ramos cells
T2 sequence (P11049 1-281): T1 sequence (P11049 1-281)
The experiment in a line: FMAT competition assay against FMAT Blue labeled CAS-006 for binding to Ramos cells. The text has this:
A competition assay was used to compare the binding affinity of different anti-CD37 specific small modular immunopharmaceutical (SMIP) molecules to CD-37 found on Ramos cells (a B-lymphoblastoid cell line derived from a Burkitt lymphoma). An SEC purified chimeric anti-CD37 SMIP molecule (CAS-006, SEQ ID NO:247) was labeled with the FMAT Blue® fluorescence dye (Applied Biosystems) and used as the standard to compete with purified unlabeled chimeric anti-CD37 SMIP molecule (positive control) and purified unlabeled humanized anti-CD37 SMIP test molecules. […] The plates were incubated at room temperature for 30 min and read on an 8200 Cellular Detection System (Applied Biosystems) gated for middle cell size and low signal.
A competition assay as described in Example 4 was used to compare the binding affinity of different mouse-human hybrid anti-CD37 SMIP molecules compared to CAS-024 binding to Ramos cells. An SEC purified chimeric anti-CD37 SMIP molecule (CAS-006, SEQ ID NO:247) was labeled with the FMAT Blue® fluorescence dye (Applied Biosystems) and used as the standard to compete with purified unlabeled chimeric anti-CD37 SMIP molecule (CAS-006, positive control) and purified unlabeled humanized anti-CD37 SMIP test molecules—CAS-002 (SEQ ID NO:48), CAS-003 (SEQ ID NO:52), CAS-014 (SEQ ID NO:251), CAS-017 (SEQ ID NO:252), and CAS-024 (SEQ ID NO:253).

The mark [6] stands for this setting: 3 μg IP days 0, 4, 8, cumulative 9 μg.
Where [7] appears, read: 10 μg IP days 0, 4, 8, cumulative 30 μg.
Where [8] appears, read: 30 μg IP days 0, 4, 8, cumulative 90 μg.
Setting [9] is: 100 μg IP days 0, 4, 8, cumulative 300 μg.

With “CAS-006: chimeric anti-CD37 SMIP protein (mVLmVH) with variable regions from mouse mAb G28-1, SEQ ID NO:247”, the “blocking activity (inhibition of binding of FITC-conjugated anti-CD37)” value with CD37 on BJAB cells is “highest level of blocking activity”. For the same molecule, the “Protein Titer” value in data set [1] is 9.3 µg/mL.

Turning to “G28-1 VH (M99F, Y102S)-VL (T25A) scFv (SSC-P) H WCH2 WCH3 [CAS-024]”, the “Protein Titer Range” value in data set [2] fell in the range of 500 to 650 µg/mL. The “Death (other than for Tumor Size Sacrifice)” value in data set [3] was 1/15^f. The “Median Survival Time” value in data set [3] is “Undefined^d, e”; in data set [4] (setting [6]) it was 19 days; in data set [4] (setting [7]), 28 days; in data set [4] (setting [8]), 35 days; in data set [4] (setting [9]), “Undefined”; in data set [5] it was 17^b Days. For the same molecule, the “mean tumor volume compared with human IgG treated group” value in data set [3] is reported as “significantly lower”. Moreover, the “Death (Not Due to Large Tumor Volume)” value in data set [4] (setting [6]) was 0/14; in data set [4] (setting [7]), 0/14; in data set [4] (setting [8]), 0/14; in data set [4] (setting [9]), 1/14^h; in data set [4] (200 μg IP days 0, 4, 8, cumulative 600 μg) it was 0/14. For the same molecule, in data set [4] (3 to 200 μg IP days 0, 4, 8), the “effect on the growth of DOHH2 tumors” value was “dose-dependent inhibitory effect”. For the same molecule, in data set [5], the “clinical signs of toxicity” value was “No clinical signs of toxicity”. Also, in data set [1], the “Protein Titer” value was determined as 12.7 µg/mL. For the same molecule, the “greater affinity for CD37 than humanized VLVH SMIP molecules with 16 amino acid linker” value at CD37 on Ramos cells (Ramos cells) is listed as at most 4 fold. Besides, the “affinity for CD37 compared with parent chimeric CAS-006” value on CD37 on Ramos cells (competition with labeled CAS-006, Ramos cells) is given as “substantially the same affinity; also recorded: same binding affinity”.

Take `Cn1c(CCCC(=O)O)nc2cc(N(CCCl)CCCl)ccc21` [Bendamustine, 4-[5-[Bis(2-chloroethyl)amino]-1-methylbenzimidazol-2-yl]butanoic acid, reference compound]: in data set [5], the “Median Survival Time” value turned out to be 17 days; the “clinical signs of toxicity” value was “scruffy coats and diarrhea”.

Take “Rituxan: anti-CD20 treatment used as single agent comparator [reference compound]”: in data set [3], the “Death (other than for Tumor Size Sacrifice)” value was 0/15, the “Median Survival Time” value came out at 43 days and the “mean tumor volume compared with human IgG treated group” value is given as “significantly lower”.
